{"source": "patent US20040213859A1", "about": "“Organic nutrient for hair loss treatment” (priority 1999, published 2004)", "origin": "cited, not measured here", "key": {"[1]": {"biological_target": "T1, type II 5-alpha-reductase (Homo sapiens, UniProt P31213)", "T1 construct": "host or cells: scalp (in vivo, treated individuals)", "T1 sequence (P31213 1-254)": "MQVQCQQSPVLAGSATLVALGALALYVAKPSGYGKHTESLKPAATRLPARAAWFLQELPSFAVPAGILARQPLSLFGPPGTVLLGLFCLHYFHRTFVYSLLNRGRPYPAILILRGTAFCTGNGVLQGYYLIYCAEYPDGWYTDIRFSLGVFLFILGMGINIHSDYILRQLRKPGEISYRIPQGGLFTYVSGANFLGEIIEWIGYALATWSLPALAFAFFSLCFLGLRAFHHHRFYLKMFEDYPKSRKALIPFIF", "conditions": "by inhibiting conversion of testosterone to DHT"}, "[2]": {"test_system": "adrogenetic alopecia", "conditions": "oral administration"}}}
{"compound": "CC(C)(C)NC(=O)[C@H]1CC[C@H]2[C@@H]3CC[C@H]4NC(=O)C=C[C@]4(C)[C@H]3CC[C@]12C", "note": "[Finisteride]", "values": [{"measurement": "scalp DHT (dihydrotestosterone)", "setting": "[1]", "value": "effective in decreasing scalp DHT"}, {"measurement": "hair loss, hair growth and appearance of hair", "setting": "[2]", "value": "slowed hair loss, increased hair growth and improved the appearance of hair"}]}
